# From BindingDB's records for doi:10.1074/jbc.M110.156463 (Merck Research Laboratories, 2011)
# Molecular target: T1, 3-phosphoinositide-dependent protein kinase 1 (Homo sapiens, UniProt O15530)
# T1 sequence (O15530 whole entry): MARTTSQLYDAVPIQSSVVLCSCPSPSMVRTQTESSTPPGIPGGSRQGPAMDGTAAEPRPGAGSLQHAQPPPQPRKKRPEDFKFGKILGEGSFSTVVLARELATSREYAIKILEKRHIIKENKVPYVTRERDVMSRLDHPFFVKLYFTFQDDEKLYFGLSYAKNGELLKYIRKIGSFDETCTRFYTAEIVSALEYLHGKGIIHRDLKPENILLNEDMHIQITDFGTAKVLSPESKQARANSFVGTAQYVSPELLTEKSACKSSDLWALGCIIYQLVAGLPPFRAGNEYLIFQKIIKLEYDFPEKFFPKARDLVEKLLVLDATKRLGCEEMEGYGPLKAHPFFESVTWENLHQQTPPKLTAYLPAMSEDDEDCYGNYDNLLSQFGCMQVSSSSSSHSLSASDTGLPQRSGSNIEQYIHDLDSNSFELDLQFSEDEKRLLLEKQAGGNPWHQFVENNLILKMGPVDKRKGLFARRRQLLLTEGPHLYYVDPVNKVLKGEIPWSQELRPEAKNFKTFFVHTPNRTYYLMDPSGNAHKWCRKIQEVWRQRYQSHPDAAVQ
# Experiment: Proliferation Assay
# Protocol: Enzyme potency (PDK1 EC50)was determined using recombinant, purified full-length human PDK1 enzyme and AKT-Thr-308-tide as substrate.
row,SMILES,EC50 [nM]
1,Cc1[nH]nc2c1c(=O)n(CCCN)c1ccc(Cl)cc21,9
2,"COc1ccc(C#Cc2ccc3ncc4ncn(-c5ccc(CCN)cc5)c4c3c2)cc1 [PDK1 inhibitor, 4]",200
3,"Cc1[nH]nc(-c2nc3cc4c[nH][nH]c4cc3n2)c1C(=O)NC1CCNCC1 [PDK1 inhibitor, 6]",12
4,"CC(Nc1nc2c(C#CC3CC3)c[nH]c(=O)c2c2cc(-c3cn[nH]c3)ccc12)C(C)(C)C (stereo unspecified) [PDK1 inhibitor, 2]",9
5,O=C(NCCCNc1nc(Nc2cccc(NC(=O)N3CCCC3)c2)ncc1I)c1cccs1 [N-{3-[(5-iodo-4-{[3-(thiophen-2-ylformamido)propyl]amino}pyrimidin-2-yl)amino]phenyl}pyrrolidine-1-carboxamide],26
6,CC(C)(C)c1nc2c3ccc(F)cc3c3c(=O)[nH]ccc3c2[nH]1 [Jak Inhibitor 1],1
